Results on 27 compounds are retold here after patent publication US20230192700A1, “PYRAZOLOPYRAZINES ACTING ON CANCERS VIA INHIBITION OF CDK12” (Bayer Aktiengesellschaft, priority 2020, published 2023).

The first assay deals with CAL-120 human breast adenocarcinoma cells. The experiment in a line: Proliferation assay CAL-120 (crystal violet). Particulars: CAL-120 cells, 4 days, median, read-out: Prolif-CAL-120— IC50 - [mol/l] (median). The assay is classed as cell-based. The method, then:
4. Proliferation assay: MDA-MB-231, CAL-120
Human tumour cells were originally obtained from the American Type Culture Collection (ATCC), or from the Deutsche Sammlung von Mikroorganismen and Zellkulturen (DSMZ, German Collection of Microorganisms and Cell Cultures). Cultivated tumour cells (CAL-120, human breast adenocarcinoma cells, DSMZ ACC-459; MDA-M B-231, human breast cancer cells, ATCC HTB-26) were plated at a density of 4,000 cells/well in a 96-well multititer plate in 200 microL of their respective growth medium supplemented 10% fetal calf serum. After 24 hours, the cells of one plate (zero-point plate) were stained with crystal violet (see below), while the medium of the other plates was supplemented with the test substances in various concentrations (0 micromol/L, as well as in the range of 0.01-10 micromol/L; the final concentration of the solvent dimethyl sulfoxide was adjusted to 0.1%) using a Tecan HP D300 Digital Dispenser. The cells were incubated for 4 days in the presence of test substances. Cell proliferation was determined by staining the cells with crystal violet: the cells were fixed by adding 20 microL/measuring point of an 11% glutaric aldehyde solution for 15 minutes at room temperature. After three washing cycles of the fixed cells with water, the plates were dried at room temperature. The cells were stained by adding 100 microL/measuring point of a 0.1% crystal violet solution (pH 3.0). After three washing cycles of the stained cells with water, the plates were dried at room temperature. The dye was dissolved by adding 100 microL/measuring point of a 10% acetic acid solution. The extinction was determined by photometry at a wavelength of 595 nm. The change of cell number, in percent, was calculated by normalization of the measured values to the extinction values of the zero-point plate(=0%) and the extinction of the untreated (0 μM) cells(=100%). The IC50 values (inhibitory concentration at 50% of maximal effect) were determined by means of a 4 parameter fit.
For the compound `c1ccc2[nH]c(CNc3nn(C4CCOC4)c4nc(C5CC5)cnc34)nc2c1` (single isomer, unassigned) [Example 18, (-) or (+) -N-[(1H-benzimidazol-2-yl)methyl]-6-cyclopropyl-1-[oxolan-3-yl]-1H-pyrazolo[3,4-b]pyrazin-3-amine], the IC50 was determined as 71.9 nM.

On to `CN1CCCC(n2nc(NCc3nc4ccccc4[nH]3)c3ncc(C4CC4)nc32)CC1` (single isomer, unassigned) [Example 38, (−) or (+)-N-[(1H-benzimidazol-2-yl)methyl]-6-cyclopropyl-1-[(4R*)-1-methylazepan-4-yl]-1H-pyrazolo[3,4-b]pyrazin-3-amine], for which the IC50 is 9.85 nM.

Take `CC(CCN(C)C)n1nc(NCc2nc3ccccc3[nH]2)c2ncc(C3CC3)nc21` (single isomer, unassigned) [Example 63, (+) or (−)-N-[(1H-benzimidazol-2-yl)methyl]-6-cyclopropyl-1-[4-(dimethylamino)butan-2-yl]-1H-pyrazolo[3,4-b]pyrazin-3-amine]: the IC50 was 878 nM.

As for `CC(CCN(C)C)n1nc(NCc2nc3ccccc3[nH]2)c2ncc(C3CC3)nc21` (single isomer, unassigned) [Example 64, (−) or(+)-N-[(1H-benzimidazol-2-yl)methyl]-6-cyclopropyl-1-[4-(dimethylamino)butan-2-yl]-1H-pyrazolo[3,4-b]pyrazin-3-amine], the IC50 came to 295 nM.

Consider `CN1CCC(n2nc(NCc3nc4ccccc4[nH]3)c3ncc(C4CC4)nc32)C1` (single isomer, unassigned) [Example 78, (+) or (−)-N-[(1H-benzimidazol-2-yl)methyl]-6-cyclopropyl-1-(1-methylpyrrolidin-3-yl)-1H-pyrazolo[3,4-b]pyrazin-3-amine], for which the IC50 is 11.2 nM.

For `CN1CCC(n2nc(NCc3nc4ccccc4[nH]3)c3ncc(C4CC4)nc32)C1` (single isomer, unassigned) [Example 79, (−) or (+)-N-[(1H-benzimidazol-2-yl)methyl]-6-cyclopropyl-1-(1-methylpyrrolidin-3-yl)-1H-pyrazolo[3,4-b]pyrazin-3-amine], the IC50 amounted to 71.4 nM.

Staying with this assay, now noted: Homo sapiens, CAL-120, 96 h, CAL-120 cells, 4 days, median, read-out: Prolif-CAL-120— IC50 - [mol/l] (median).
On to `CN1CCCC(n2nc(NCc3nc4ccccc4[nH]3)c3ncc(C4CC4)nc32)CC1` (racemic) [Example 34, (±)-N-[(1H-benzimidazol-2-yl)methyl]-6-cyclopropyl-1-(1-methylazepan-4-yl)-1H-pyrazolo[3,4-b]pyrazin-3-amine], for which the IC50 came to 7.7 nM.

For `CN1CCC(n2nc(NCc3nc4ccccc4[nH]3)c3ncc(C4CC4)nc32)C1` (racemic) [Example 35, (±)-N-[(1H-benzimidazol-2-yl)methyl]-6-cyclopropyl-1-(1-methylpyrrolidin-3-yl)-1H-pyrazolo[3,4-b]pyrazin-3-amine], the IC50 was found to be 11.7 nM.

Regarding `COCCC(C)n1nc(NCc2nc3ccccc3[nH]2)c2ncc(C3CC3)nc21` (racemic) [Example 57, (±)-N-[(1H-benzimidazol-2-yl)methyl]-6-cyclopropyl-1-(4-methoxybutan-2-yl)-1H-pyrazolo[3,4-b]pyrazin-3-amine], the IC50 worked out at 105 nM.

As to `CC(CCN(C)C)n1nc(NCc2nc3ccccc3[nH]2)c2ncc(C3CC3)nc21` (racemic) [Example 62, (±)-N-[(1H-benzimidazol-2-yl)methyl]-6-cyclopropyl-1-[4-(dimethylamino)butan-2-yl]-1H-pyrazolo[3,4-b]pyrazin-3-amine], the IC50 came out at 301 nM.

Consider `c1ccc2[nH]c(CNc3nn(C4CCOC4)c4nc(C5CC5)cnc34)nc2c1` (single isomer, unassigned) [Example 17, (+) or (−)-N-[(1H-benzimidazol-2-yl)methyl]-6-cyclopropyl-1-(oxolan-3-yl)-1H-pyrazolo[3,4-b]pyrazin-3-amine], for which the IC50 turned out to be 70.3 nM.

Take `CN1CCC(n2nc(NCc3nc4c(F)c(F)ccc4[nH]3)c3ncc(C4CC4)nc32)CC1` [Example 9, 6-cyclopropyl-N-[(4,5-difluoro-1H-benzimidazol-2-yl)methyl]-1-(1-methylpiperidin-4-yl)-1H-pyrazolo[3,4-b]pyrazin-3-amine]: the IC50 was determined as 6.78 nM.

On to `CC(C)(C)OC(=O)N1CCC(n2nc(NCc3nc4ccccc4[nH]3)c3ncc(C4CC4)nc32)CC1` [Example 11, tert-butyl 4-(3-{[(1H-benzimidazol-2-yl)methyl]amino}-6-cyclopropyl-1H-pyrazolo[3,4-b]pyrazin-1-yl)piperidine-1-carboxylate], for which the IC50 came out at 81.4 nM.

Turning to `CC(C)n1nc(NCc2nc3ccccc3[nH]2)c2ncc(C3CC3)nc21` [Example 14, N-[(1H-benzimidazol-2-yl)methyl]-6-cyclopropyl-1-(propan-2-yl)-1H-pyrazolo[3,4-b]pyrazin-3-amine], the IC50 amounted to 96.4 nM.

In the case of `CN1CCC(n2nc(NCc3nc4c(Br)cccc4[nH]3)c3ncc(C4CC4)nc32)CC1` [Example 20, N-[(4-bromo-1H-benzimidazol-2-yl)methyl]-6-cyclopropyl-1-(1-methylpiperidin-4-yl)-1H-pyrazolo[3,4-b]pyrazin-3-amine], the IC50 came to 7.27 nM.

Turning to `Cc1c(Cl)ccc2[nH]c(CNc3nn(C4CCN(C)CC4)c4nc(C5CC5)cnc34)nc12` [Example 21, N-[(5-chloro-4-methyl-1H-benzimidazol-2-yl)methyl]-6-cyclopropyl-1-(1-methylpiperidin-4-yl)-1H-pyrazolo[3,4-b]pyrazin-3-amine], the IC50 came to 7.93 nM.

In the case of `CN1CCC(n2nc(NCc3nc4cc(Cl)ccc4[nH]3)c3ncc(C4CC4)nc32)CC1` [Example 22, N-[(5-chloro-1H-benzimidazol-2-yl)methyl]-6-cyclopropyl-1-(1-methylpiperidin-4-yl)-1H-pyrazolo[3,4-b]pyrazin-3-amine], the IC50 came out at 4.21 nM.

As for `Fc1cccc2[nH]c(CNc3nn(C4CCOCC4)c4nc(C5CC5)cnc34)nc12` [Example 23, 6-cyclopropyl-N-[(4-fluoro-1H-benzimidazol-2-yl)methyl]-1-(oxan-4-yl)-1H-pyrazolo[3,4-b]pyrazin-3-amine], the IC50 amounted to 15.4 nM.

Regarding `Cc1c(F)ccc2[nH]c(CNc3nn(C4CCN(C)CC4)c4nc(C5CC5)cnc34)nc12` [Example 26, 6-cyclopropyl-N-[(5-fluoro-4-methyl-1H-benzimidazol-2-yl)methyl]-1-(1-methylpiperidin-4-yl)-1H-pyrazolo[3,4-b]pyrazin-3-amine], the IC50 amounted to 10.1 nM.

With `CN1CCC(n2nc(NCc3nc4cc(SC(F)(F)F)ccc4[nH]3)c3ncc(C4CC4)nc32)CC1` [Example 27, 6-cyclopropyl-1-(1-methylpiperidin-4-yl)-N-({5-[(trifluoromethyl)sulfanyl]-1H-benzimidazol-2-yl}methyl)-1H-pyrazolo[3,4-b]pyrazin-3-amine], the IC50 was 266 nM.

As for `Cc1ccc2[nH]c(CNc3nn(C4CCN(C)CC4)c4nc(C5CC5)cnc34)nc2c1C` [Example 28, 6-cyclopropyl-N-[(4,5-dimethyl-1H-benzimidazol-2-yl)methyl]-1-(1-methylpiperidin-4-yl)-1H-pyrazolo[3,4-b]pyrazin-3-amine], the IC50 came out at 9.54 nM.

For the compound `CN1CCC(n2nc(NCc3nc4cc(Cl)c(F)cc4[nH]3)c3ncc(C4CC4)nc32)CC1` [Example 29, N-[(5-chloro-6-fluoro-1H-benzimidazol-2-yl)methyl]-6-cyclopropyl-1-(1-methylpiperidin-4-yl)-1H-pyrazolo[3,4-b]pyrazin-3-amine], the IC50 is 9.75 nM.

With `CN1CCC(n2nc(NCc3nc4cc(F)c(F)cc4[nH]3)c3ncc(C4CC4)nc32)CC1` [Example 30, 6-cyclopropyl-N-[(5,6-difluoro-1H-benzimidazol-2-yl)methyl]-1-(1-methylpiperidin-4-yl)-1H-pyrazolo[3,4-b]pyrazin-3-amine], the IC50 was 13.4 nM.

`CN1CCC(n2nc(NCc3nc4c(Cl)c(F)ccc4[nH]3)c3ncc(C4CC4)nc32)CC1` [Example 31, N-[(4-chloro-5-fluoro-1H-benzimidazol-2-yl)methyl]-6-cyclopropyl-1-(1-methylpiperidin-4-yl)-1H-pyrazolo[3,4-b]pyrazin-3-amine]: the IC50 was found to be 7.09 nM.

Take `Cc1cccc2[nH]c(CNc3nn(C4CCOCC4)c4nc(C5CC5)cnc34)nc12` [Example 33, 6-cyclopropyl-N-[(4-methyl-1H-benzimidazol-2-yl)methyl]-1-(oxan-4-yl)-1H-pyrazolo[3,4-b]pyrazin-3-amine]: the IC50 amounted to 22.5 nM.

On to `FC1(F)CCC(n2nc(NCc3nc4ccccc4[nH]3)c3ncc(C4CC4)nc32)CC1` [Example 36, N-[(1H-benzimidazol-2-yl)methyl]-6-cyclopropyl-1-(4,4-difluorocyclohexyl)-1H-pyrazolo[3,4-b]pyrazin-3-amine], for which the IC50 was found to be 48.8 nM.

Turning to `OCCCn1nc(NCc2nc3ccccc3[nH]2)c2ncc(C3CC3)nc21` [Example 60, 3-(3-{[(1H-benzimidazol-2-yl)methyl]amino}-6-cyclopropyl-1H-pyrazolo[3,4-b]pyrazin-1-yl)propan-1-ol], the IC50 turned out to be 128 nM.
